Values after ≈ are worked out from the molar mass of the structure shown.
Columns and labels:
Staphylococcus aureus [1] = assay: Antibacterial activity against methicillin-resistant Staphylococcus aureus ATCC 33591 assessed as inhibition of bacterial growth incubated for 24 hrs by broth microdilution method; type: functional
Staphylococcus aureus [2] = assay: Antibacterial activity against methicillin-resistant Staphylococcus aureus ATCC 43300 assessed as inhibition of bacterial growth incubated for 24 hrs by broth microdilution method; type: functional
Staphylococcus aureus [3] = assay: Antibacterial activity against […] assessed as inhibition of bacterial growth incubated for 24 hrs by broth microdilution method; type: functional; details: ATCC 29213
[4] = tested on: Staphylococcus epidermidis; assay: Antibacterial activity against methicillin-resistant Staphylococcus epidermidis ATCC 51625 assessed as inhibition of bacterial growth incubated for 24 hrs by broth microdilution method; type: functional
Acinetobacter baumannii = assay: Antibacterial activity against Acinetobacter baumannii ATCC 19606 assessed as inhibition of bacterial growth incubated for 24 hrs by broth microdilution method; type: functional
Salmonella enterica = assay: Antibacterial activity against Salmonella enterica ATCC 14028 assessed as inhibition of bacterial growth incubated for 24 hrs by broth microdilution method; type: functional
Escherichia coli [5] = assay: Antibacterial activity against Escherichia coli ATCC 25922 assessed as inhibition of bacterial growth incubated for 24 hrs by broth microdilution method; type: functional
Escherichia coli [6] = assay: Antibacterial activity against Escherichia coli CMCC 44103 assessed as inhibition of bacterial growth incubated for 24 hrs by broth microdilution method; type: functional
[7] = Aqueous solubility of the compound in physiological saline measured after 12 hrs by UV spectrophotometric analysis; type: physicochemical

| Compound | MIC (Staphylococcus aureus [1]) [µg/mL] | MIC (Staphylococcus aureus [2]) [µg/mL] | MIC (Staphylococcus aureus [3]) [µg/mL] | MIC [4] [µg/mL] | MIC (Acinetobacter baumannii) [µg/mL] | MIC (Salmonella enterica) [µg/mL] | MIC (Escherichia coli [5]) [µg/mL] | MIC (Escherichia coli [6]) [µg/mL] | solubility at 12 h [7] [µM] |
| --- | --- | --- | --- | --- | --- | --- | --- | --- | --- |
| C=C[C@]1(C)C[C@@H](OC(=O)CSc2nc(-c3cc[n+](Cc4cc(C)cc(C)c4)cc3)cs2)[C@]2(C)[C@H](C)CC[C@]3(CCC(=O)[C@H]32)[C@@H](C)[C@@H]1O.[Br-] | 64 | 128 | 128 | 128 | 8 | 16 | 32 | 32 | 543 |
| C=C[C@]1(C)C[C@@H](OC(=O)CSc2nnc(-c3cc[n+](Cc4ccccc4)cc3)o2)[C@]2(C)[C@H](C)CC[C@]3(CCC(=O)[C@H]32)[C@@H](C)[C@@H]1O.[Br-] | 64 | 32 | 16 | 128 | 128 | 32 | 128 | 64 |  |
| C=C[C@]1(C)C[C@@H](OC(=O)CSc2nc(-c3cc[n+](Cc4ccccc4)cc3)cs2)[C@]2(C)[C@H](C)CC[C@]3(CCC(=O)[C@H]32)[C@@H](C)[C@@H]1O.[Br-] | 1 |  | 0.125 | 4 | 4 |  |  | 0.25 | 871 |
| C=C[C@]1(C)C[C@@H](OC(=O)CSc2nc(-c3cc[n+](Cc4ccc(OC(F)(F)F)cc4)cc3)cs2)[C@]2(C)[C@H](C)CC[C@]3(CCC(=O)[C@H]32)[C@@H](C)[C@@H]1O.[Br-] | 2 | 2 | 2 | 4 | 8 | 4 | 2 | 32 | 537 |
| C=C[C@]1(C)C[C@@H](OC(=O)CSc2nc(-c3cc[n+](CCCCCCCCCCCCCCCC)cc3)cs2)[C@]2(C)[C@H](C)CC[C@]3(CCC(=O)[C@H]32)[C@@H](C)[C@@H]1O.[Br-] | > 128 | 64 | 64 | > 128 | > 128 | > 128 | > 128 | > 128 | 187 |
| C=C[C@]1(C)C[C@@H](OC(=O)CSc2nc(-c3cc[n+](Cc4cc(OC)cc(OC)c4)cc3)cs2)[C@]2(C)[C@H](C)CC[C@]3(CCC(=O)[C@H]32)[C@@H](C)[C@@H]1O.[Br-] | 64 | 128 | 128 | 128 | 8 | 16 | 32 | 8 | 912 |
| C=C[C@]1(C)C[C@@H](OC(=O)CSc2nc(-c3cc[n+](Cc4ccc5ccccc5c4)cc3)cs2)[C@]2(C)[C@H](C)CC[C@]3(CCC(=O)[C@H]32)[C@@H](C)[C@@H]1O.[Br-] | 16 | 4 | 4 | 4 | 16 | 4 | 16 | 8 | 483 |
| C=C[C@]1(C)C[C@@H](OC(=O)CSc2nnc(-c3cc[n+](Cc4ccc(C)cc4)cc3)o2)[C@]2(C)[C@H](C)CC[C@]3(CCC(=O)[C@H]32)[C@@H](C)[C@@H]1O.[Br-] | 16 | 16 | 4 | 64 | 128 | 32 | 32 | 64 |  |
| Br.C=C[C@]1(C)C[C@@H](OC(=O)CSc2nc(-c3cc[n+](Cc4ccc([N+](=O)[O-])o4)cc3)cs2)[C@]2(C)[C@H](C)CC[C@]3(CCC(=O)[C@H]32)[C@@H](C)[C@@H]1O | 32 | 8 | 4 | 8 | 16 | 32 | 8 | 64 | 1650 |
| C=C[C@]1(C)C[C@@H](OC(=O)CSc2nc(-c3cc[n+](Cc4ccc(C(C)(C)C)cc4)cc3)cs2)[C@]2(C)[C@H](C)CC[C@]3(CCC(=O)[C@H]32)[C@@H](C)[C@@H]1O.[Br-] | 1 | 2 | 0.25 | 2 | 2 | 2 | 2 | 2 | 306 |
| C=C[C@]1(C)C[C@@H](OC(=O)CSc2nc(-c3cc[n+](Cc4ccc(F)cc4)cc3)cs2)[C@]2(C)[C@H](C)CC[C@]3(CCC(=O)[C@H]32)[C@@H](C)[C@@H]1O.[Br-] | 2 | 8 | 1 | 4 | 16 | 1 | 2 | 1 | 807 |
| C=C[C@]1(C)C[C@@H](OC(=O)CSc2nc(-c3cc[n+](Cc4ccc(C#N)cc4)cc3)cs2)[C@]2(C)[C@H](C)CC[C@]3(CCC(=O)[C@H]32)[C@@H](C)[C@@H]1O.[Br-] | 64 | 2 | 0.125 | 16 | 32 | 32 | 2 | 8 | 683 |
| C=C[C@]1(C)C[C@@H](OC(=O)CSc2nc(-c3cc[n+](Cc4ccc(Br)cc4)cc3)cs2)[C@]2(C)[C@H](C)CC[C@]3(CCC(=O)[C@H]32)[C@@H](C)[C@@H]1O.[Br-] | 2 | 1 | 0.5 | 8 | 2 | 4 | 2 | 0.5 | 760 |
| C=C[C@]1(C)C[C@@H](OC(=O)CSc2nc(-c3cc[n+](Cc4ccc(Cl)cc4)cc3)cs2)[C@]2(C)[C@H](C)CC[C@]3(CCC(=O)[C@H]32)[C@@H](C)[C@@H]1O.[Br-] | 2 | 2 | 0.125 | 8 | 2 | 2 | 0.5 | 1 | 649 |
| Br.C=C[C@]1(C)C[C@@H](OC(=O)CSc2nnc(-c3cc[n+](Cc4ccc([N+](=O)[O-])cc4)cc3)o2)[C@]2(C)[C@H](C)CC[C@]3(CCC(=O)[C@H]32)[C@@H](C)[C@@H]1O | 32 | 64 | 32 | 32 | 64 | 128 | > 128 | 128 |  |
| C=C[C@]1(C)C[C@@H](OC(=O)CSc2nc(-c3ccncc3)cs2)[C@]2(C)[C@H](C)CC[C@]3(CCC(=O)[C@H]32)[C@@H](C)[C@@H]1O | 16 (≈ 28.8 µM) | 32 (≈ 57.7 µM) | 8 (≈ 14.4 µM) | 32 (≈ 57.7 µM) | 64 (≈ 115 µM) | 32 (≈ 57.7 µM) | 64 (≈ 115 µM) | 32 (≈ 57.7 µM) |  |
| C=C[C@]1(C)C[C@@H](OC(=O)CSc2nnc(-c3ccncc3)o2)[C@]2(C)[C@H](C)CC[C@]3(CCC(=O)[C@H]32)[C@@H](C)[C@@H]1O | 64 (≈ 119 µM) | 128 (≈ 237 µM) | 16 (≈ 29.6 µM) | 128 (≈ 237 µM) | 128 (≈ 237 µM) | 64 (≈ 119 µM) | > 128 | 128 (≈ 237 µM) |  |
| C=C[C@]1(C)C[C@@H](OC(=O)CSc2nnc(-c3cc[n+](Cc4ccc(C#N)cc4)cc3)o2)[C@]2(C)[C@H](C)CC[C@]3(CCC(=O)[C@H]32)[C@@H](C)[C@@H]1O.[Br-] | 32 | 16 | 16 | 64 | > 128 | 32 | 64 | 64 |  |

From ChEMBL document CHEMBL5338747, “Discovery of Quaternized Pyridine-Thiazole-Pleuromutilin Derivatives with Broad-Spectrum Antibacterial and Potent Anti-MRSA Activity” (J Med Chem, 2023)
